Tests used:
PI3K/mTOR = settings: relatively higher concentrations; cited from earlier work
[1] = test system: influenza vaccine strains; experiment: Clinical study in elderly volunteers: response to influenza vaccination after 6 weeks of mTOR inhibitor dosing; format: in vivo, human; settings: 4 weeks after vaccination, 2 week drug-free break
Description: In a clinical study elderly volunteers were treated for 6 weeks daily with one of four mTOR inhibitor dosing regimens: 0.5 mg/day RAD001, 0.1 mg/day RAD001, 10 mg/day BEZ235 or 0.1 mg/day RAD001+10 mg/day BEZ235.
After being dosed for 6 weeks, the elderly volunteers were given a 2 week drug-free break and then received influenza vaccination. […] All dosing regimens were relatively well tolerated. […] However the majority of these adverse events were of mild severity, transient and resolved despite continued dosing of mTOR inhibitors.

mTOR = mTOR (Homo sapiens, UniProt P42345); settings: low concentration; cited from earlier work

| SMILES | concentration at which dual PI3K/mTOR inhibition occurs (PI3K/mTOR) | vaccine strains with GMT ratio as compared to placebo >1.2 ([1]; BEZ235 10 mg/day monotherapy for 6 weeks) | concentration at which mTOR inhibition predominates (mTOR) | vaccine strains with GMT ratio as compared to placebo >1.2 ([1]; RAD001 0.1 mg/day monotherapy for 6 weeks) | vaccine strains with GMT ratio as compared to placebo >1.2 ([1]; RAD001 0.5 mg/day monotherapy for 6 weeks) |
| --- | --- | --- | --- | --- | --- |
| Cn1c(=O)n(-c2ccc(C(C)(C)C#N)cc2)c2c3cc(-c4cnc5ccccc5c4)ccc3ncc21 [BEZ235, 2-methyl-2-[4-(3-methyl-2-oxo-8-quinolin-3-yl-2,3-dihydro-imidazo[4,5-c]quinolin-1-yl)-phenyl]-propionitrile] | approximately 500 nmol/L | 0/3 | less than 100 nmol/L | – | – |
| CO[C@H]1C[C@@H]2CC[C@@H](C)[C@@](O)(O2)C(=O)C(=O)N2CCCC[C@H]2C(=O)O[C@H]([C@H](C)C[C@@H]2CC[C@@H](OCCO)[C@H](OC)C2)CC(=O)[C@H](C)/C=C(\C)[C@@H](O)[C@@H](OC)C(=O)[C@H](C)C[C@H](C)/C=C/C=C/C=C/1C [RAD001, (1R,9S,12S,15R,16E,18R,19R,21R,23S,24E,26E,28E,30S,32S,35R)-1,18-dihydroxy-12-{(1R)-2-[(1S,3R,4R)-4-(2-hydroxyethoxy)-3-methoxycyclohexyl]-1-methylethyl}-19,30-dimethoxy-15,17,21,23,29,35-hexamethyl-11,36-dioxa-4-aza-tricyclo[30.3.1.04,9]hexatriaconta-16,24,26,28-tetraene-2,3,10,14,20-pentaone] | – | – | – | ⅓ | ⅓ |
